Assay results: US11554171B2, “Compounds and methods for the targeted degradation of bromodomain-containing proteins” (Arvinas Operations, Inc., priority 2015, dated 2023)

System: c-myc in 22RV-1 cells
Test: Human c-myc ELISA assay
Assay type: cell-based
Conditions: Homo sapiens; for Emax: 22Rv1, 18 h, read-out: Degradation of BRD4: Maximum inhibition (%) c-Myc ELISA in 22RV1 cells; for DC50: 22Rv1, read-out: Degradation of BRD4: DC50 (uM) c-Myc ELISA in 22RV1 cells
In short: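 c-myc levels measured by ELISA in RIPA lysates of 22RV-1 cells, calibrated with a 333-0 pg/ml standard curve. Lysates came from cells exposed for 18 h to an 8-point, 1:3 dose series starting at 300 nM or 1 μM final in 0.1% DMSO. Suppression potency given as DC50.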

SMILES | Emax [%] | DC50 [µM]
Cc1ncsc1-c1ccc([C@H](C)NC(=O)[C@@H]2C[C@@H](O)CN2C(=O)[C@@H](NC(=O)c2cc3cc(OCCNC(=O)C[C@@H]4N=C(c5ccc(Cl)cc5)c5c(sc(C)c5C)-n5c(C)nnc54)ccc3o2)C(C)(C)C)cc1 [Example 165, (2S,4R)-1-[(2S)-2-{[5-(2-{2-[(9S)-7-(4-chlorophenyl)-4,5,13-trimethyl-3-thia-1,8,11,12-tetraazatricyclo[8.3.0.0^2,^6]trideca-2(6),4,7,10,12-pentaen-9-yl]acetamido}ethoxy)-1-benzofuran-2-yl]formamido}-3,3-dimethylbutanoyl]-4-hydroxy-N-[(1S)-1-[4-(4-methyl-1,3-thiazol-5-yl)phenyl]ethyl]pyrrolidine-2-carboxamide] | 97 | < 0.01
Cc1ncsc1-c1ccc(CNC(=O)[C@@H]2C[C@@H](O)CN2C(=O)[C@@H](NC(=O)COCCCOCCNC(=O)C[C@H]2N=C(c3ccc(Cl)cc3)c3c(sc(C)c3C)-n3c(C)nnc32)C(C)(C)C)cc1 [Example 106] | < 5 | > 1
Cc1ncsc1-c1ccc([C@H](C)NC(=O)[C@@H]2C[C@@H](O)CN2C(=O)[C@H](C(C)C)n2cc(-c3ccc(N4CCN(C(=O)C[C@@H]5N=C(c6ccc(Cl)cc6)c6c(sc(C)c6C)-n6c(C)nnc65)CC4)nc3)cn2)cc1 [Example 320] | 97.8 | < 0.01
Cc1sc2c(c1C)C(c1ccc(Cl)cc1)=N[C@@H](CC(=O)N[C@H]1C[C@@H](Oc3ccc4oc(C(=O)N[C@H](C(=O)N5C[C@H](O)C[C@H]5C(=O)N[C@@H](C)c5ccc(-n6ccnc6C)cc5)C(C)(C)C)cc4c3)C1)c1nnc(C)n1-2 [Example 261] | 92.7 | 0.01 to 0.1
Cc1ncsc1-c1ccc(CNC(=O)[C@@H]2C[C@@H](O)CN2C(=O)[C@@H](NC(=O)COc2ccc(S(=O)(=O)CCNC(=O)C[C@@H]3N=C(c4ccc(Cl)cc4)c4c(sc(C)c4C)-n4c(C)nnc43)cc2)C(C)(C)C)cc1 [Example 113] | 88.5 | 0.01 to 0.1
Cc1ncsc1-c1ccc(CNC(=O)[C@@H]2C[C@@H](O)CN2C(=O)[C@H](C(C)C)n2cc(-c3ccnc(O[C@H](C)CNC(=O)C[C@@H]4N=C(c5ccc(Cl)cc5)c5c(sc(C)c5C)-n5c(C)nnc54)c3)cn2)cc1 [Example 168] | 92 | 0.01 to 0.1
CC(=O)N[C@H](C(=O)N1C[C@H](O)C[C@H]1C(=O)NCc1ccc(-c2scnc2C)cc1OCCOCCCOc1ccc(C2=N[C@@H](CC(=O)Nc3ccccc3)c3nnc(C)n3-c3sc(C)c(C)c32)cc1)C(C)(C)C [Example 181, (2S,4R)-1-[(2S)-2-acetamido-3,3-dimethylbutanoyl]-4-hydroxy-N-{[4-(4-methyl-1,3-thiazol-5-yl)-2-[2-(3-{4-[(9S)-4,5,13-trimethyl-9-[(phenylcarbamoyl)methyl]-3-thia-1,8,11,12-tetraazatricyclo[8.3.0.0^2,^6]trideca-2(6),4,7,10,12-pentaen-7-yl]phenoxy}propoxy)ethoxy]phenyl]methyl}pyrrolidine-2-carboxamide] | 80.5 | 0.1 to 1
Cc1ncsc1-c1ccc(CNC(=O)[C@@H]2C[C@@H](O)CN2C(=O)[C@@H](NC(=O)COCCCCOc2ccc3c(c2)c2c(C(N)=O)cc(-c4c(C)noc4C)cc2n3Cc2ccccc2)C(C)(C)C)cc1 [Example 175] | 92 | 0.01 to 0.1
Cc1ncsc1-c1ccc(CNC(=O)[C@@H]2C[C@@H](O)CN2C(=O)[C@@H](NC(=O)COCCCOCCCOc2ccc(NC(=O)C[C@@H]3N=C(c4ccc(Cl)cc4)c4c(sc(C)c4C)-n4c(C)nnc43)cc2)C(C)(C)C)cc1 [Example 16] | 98.6 | 0.01 to 0.1
Cc1ncsc1-c1ccc(CNC(=O)[C@@H]2C[C@@H](O)CN2C(=O)[C@@H](NC(=O)COCCN2CCC(NC(=O)C[C@@H]3N=C(c4ccc(Cl)cc4)c4c(sc(C)c4C)-n4c(C)nnc43)CC2)C(C)(C)C)cc1 [Example 79] | 50.8 | > 1
Cc1ncsc1-c1ccc(CNC(=O)[C@@H]2C[C@@H](O)CN2C(=O)[C@H](C(C)C)n2cc(Oc3ccc(CNC(=O)C[C@@H]4N=C(c5ccc(Cl)cc5)c5c(sc(C)c5C)-n5c(C)nnc54)cc3)cn2)cc1 [Example 238] | 93.3 | 0.01 to 0.1
Cc1ncsc1-c1ccc([C@H](C)NC(=O)[C@@H]2C[C@@H](O)CN2C(=O)[C@@H](NC(=O)CCc2cc(F)cc(OC(C)CNC(=O)C[C@@H]3N=C(c4ccc(Cl)cc4)c4c(sc(C)c4C)-n4c(C)nnc43)c2)C(C)(C)C)cc1 (stereo partly drawn) [Example 156] | 96.5 | < 0.01
Cc1ncsc1-c1ccc(CNC(=O)[C@@H]2C[C@@H](O)CN2C(=O)[C@@H](NC(=O)COCCCCOc2cccc(NC(=O)C[C@@H]3N=C(c4ccc(Cl)cc4)c4c(sc(C)c4C)-n4c(C)nnc43)c2)C(C)(C)C)cc1 [Example 126] | 99 | < 0.01
Cc1ncsc1-c1ccc([C@H](C)NC(=O)[C@@H]2C[C@@H](O)CN2C(=O)[C@@H](NC(=O)CN2CCC(O[C@H]3C[C@@H](NC(=O)C[C@@H]4N=C(c5ccc(Cl)cc5)c5c(sc(C)c5C)-n5c(C)nnc54)C3)CC2)C(C)(C)C)cc1 [Example 257, (2S,4R)-1-[(2S)-3,3-dimethyl-2-(2-{4-[(1,3-cis)-3-{2-[(9S)-7-(4-chlorophenyl)-4,5,13-trimethyl-3-thia-1,8,11,12-tetraazatricyclo[8.3.0.0^2,^6]trideca-2(6),4,7,10,12-pentaen-9-yl]acetamido}cyclobutoxy]piperidin-1-yl}acetamido)butanoyl]-4-hydroxy-N-[(1S)-1-[4-(4-methyl-1,3-thiazol-5-yl)phenyl]ethyl]pyrrolidine-2-carboxamide] | 87 | 0.01 to 0.1
Cc1ncsc1-c1ccc(CNC(=O)[C@@H]2C[C@@H](O)CN2C(=O)[C@@H](NC(=O)COCCOc2cccc(NC(=O)C[C@@H]3N=C(c4ccc(Cl)cc4)c4c(sc(C)c4C)-n4c(C)nnc43)c2)C(C)(C)C)cc1 [Example 81] | 99 | 0.01 to 0.1
Cc1ncsc1-c1ccc([C@H](C)NC(=O)[C@@H]2C[C@@H](O)CN2C(=O)[C@@H](NC(=O)CCCCOCCCNC(=O)C[C@@H]2N=C(c3ccc(Cl)cc3)c3c(sc(C)c3C)-n3c(C)nnc32)C(C)(C)C)cc1 [Example 176] | 90.3 | < 0.01
Cc1ncsc1-c1ccc([C@H](C)NC(=O)[C@@H]2C[C@@H](O)CN2C(=O)[C@@H](NC(=O)CCOCCN2CCN(C(=O)C[C@@H]3N=C(c4ccc(Cl)cc4)c4c(sc(C)c4C)-n4c(C)nnc43)CC2)C(C)(C)C)cc1 [Example 318] | 79 | 0.1 to 1
Cc1ncsc1-c1ccc([C@H](C)NC(=O)[C@H]2C[C@H](O)CN2C(=O)[C@@H](NC(=O)COCCCOCCNC(=O)C[C@@H]2N=C(c3ccc(Cl)cc3)c3c(sc(C)c3C)-n3c(C)nnc32)C(C)(C)C)cc1 [Example 72, (2R, 4S)-1-[(2S)-2-{2-[3-(2-{2-[(9S)-7-(4-chlorophenyl)-4,5,13-trimethyl-3-thia-1,8,11,12-tetraazatricyclo[8.3.0.0^2,^6]trideca-2(6),4,7,10,12-pentaen-9-yl]acetamido}ethoxy)propoxy]acetamido}-3,3-dimethylbutanoyl]-4-hydroxy-N-[(1S)-1-[4-(4-methyl-1,3-thiazol-5-yl)phenyl]ethyl]pyrrolidine-2-carboxamide] | 10.2 | > 1
